Laboratory results published in US8609715B2, “Heteroarylcarboxylic acid ester derivative” (Ajinomoto Co., Inc., priority 2009, dated 2013).
Counter-ions that a name gives are not always drawn.

Target: recombinant human enteropeptidase (Homo sapiens (Human), UniProt P98073)
Assay: Measurement of enteropeptidase inhibitory activity
Assay type: biochemical
Settings: Dixon plot
Method: Measurement of Enteropeptidase Inhibitory Activity
Using a 96 well plate (#3915, Costar), a test compound (25 μL), 400 mM Tris-HCl buffer (pH 8.0, 25 μL) and 0.5 mg/mL fluorescence enzyme substrate (Gly-Asp-Asp-Asp-Asp-Lys-β-Naphtylamide, 25 μL) were mixed, and recombinant human enteropeptidase (R&D Systems, Inc., 25 μL) was added. Using a fluorescence plate reader fmax (Molecular Devices, Inc.), the reaction rate was measured from the time-course changes at excitation wavelength 320 nm and fluorescence wavelength 405 nm. The Ki value was calculated from the concentration of the test compound, reciprocal of reaction rate, and Km value of the enzyme substrate, and by using Dixon plot.

Chain of recombinant human enteropeptidase (P98073 whole entry): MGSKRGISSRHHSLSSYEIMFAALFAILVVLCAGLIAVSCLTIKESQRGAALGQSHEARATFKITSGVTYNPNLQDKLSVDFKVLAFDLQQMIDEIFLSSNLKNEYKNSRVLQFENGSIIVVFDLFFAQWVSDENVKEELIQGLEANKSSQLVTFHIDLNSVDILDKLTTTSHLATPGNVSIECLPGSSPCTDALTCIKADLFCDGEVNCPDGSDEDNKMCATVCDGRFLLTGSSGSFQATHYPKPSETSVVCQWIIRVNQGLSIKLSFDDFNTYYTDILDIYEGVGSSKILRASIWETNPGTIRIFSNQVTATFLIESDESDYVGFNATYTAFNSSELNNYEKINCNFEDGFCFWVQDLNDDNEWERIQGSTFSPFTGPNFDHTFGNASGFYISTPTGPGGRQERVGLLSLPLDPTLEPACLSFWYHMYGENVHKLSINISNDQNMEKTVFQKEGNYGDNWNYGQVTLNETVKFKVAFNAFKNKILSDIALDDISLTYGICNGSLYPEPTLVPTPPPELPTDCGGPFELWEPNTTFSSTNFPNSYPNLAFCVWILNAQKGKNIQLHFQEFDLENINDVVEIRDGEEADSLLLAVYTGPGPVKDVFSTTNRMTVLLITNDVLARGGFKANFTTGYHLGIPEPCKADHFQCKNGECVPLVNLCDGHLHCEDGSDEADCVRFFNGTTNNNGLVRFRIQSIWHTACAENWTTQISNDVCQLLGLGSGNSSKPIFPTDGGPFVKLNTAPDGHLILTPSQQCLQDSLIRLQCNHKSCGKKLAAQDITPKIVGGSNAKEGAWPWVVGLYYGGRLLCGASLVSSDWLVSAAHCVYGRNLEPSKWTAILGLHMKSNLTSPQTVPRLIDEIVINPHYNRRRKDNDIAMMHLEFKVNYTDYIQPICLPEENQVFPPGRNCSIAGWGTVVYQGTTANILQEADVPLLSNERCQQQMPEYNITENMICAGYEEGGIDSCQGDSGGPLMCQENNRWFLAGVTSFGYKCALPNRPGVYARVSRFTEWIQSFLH

`CC(Cc1ccc(C(=O)Oc2ccc(C(=N)N)cc2)o1)C(=O)O` (stereo in doubt) [Compound A-42, 3-[5-(4-amidinophenoxycarbonyl)furan-2-yl]-2R-methylpropionic acid trifluoroacetic acid salt] gave a Ki of 0.71 nM.
For `C/C(=C\c1ccc(C(=O)Oc2ccc(C(=N)N)cc2)o1)C(=O)N[C@@H](CO)C(=O)O` [Compound A-1], the Ki was 2.27 nM.
`C/C(=C\c1ccc(C(=O)Oc2ccc(C(=N)N)cc2)o1)C(=O)NCC(=O)O` [Compound A-2] gave a Ki of 1.97 nM.
`C/C(=C\c1ccc(C(=O)Oc2ccc(C(=N)N)cc2)o1)C(=O)O` [Compound A-3, (2E)-3-[5-(4-amidinophenoxycarbonyl)-furan-2-yl]-2-methylpropenoic acid trifluoroacetic acid salt] was tested, and the Ki was 1.15 nM.
Compound `CC(Cc1ccc(C(=O)Oc2ccc(C(=N)N)cc2)o1)C(=O)NCC(=O)O` (stereo not drawn) [Compound A-4] has a Ki of 2.68 nM.
For `CC(Cc1ccc(C(=O)Oc2ccc(C(=N)N)cc2)o1)C(=O)N[C@@H](CO)C(=O)O` (stereo partly drawn) [Compound A-5], the Ki was 1.37 nM.
In the case of `CC(Cc1ccc(C(=O)Oc2ccc(C(=N)N)cc2)o1)C(=O)O` (stereo not drawn) [Compound A-6, 3-[5-(4-amidinophenoxycarbonyl)furan-2-yl]-2-methylpropionic acid trifluoroacetic acid salt], the Ki is reported as 0.62 nM.
In the case of `C/C(=C\c1ccc(C(=O)Oc2ccc(C(=N)N)cc2)o1)C(=O)N(CCCO)CC(=O)O` [Compound A-7], the Ki is reported as 1.49 nM.
Compound `CC(Cc1ccc(C(=O)Oc2ccc(C(=N)N)cc2)o1)C(=O)N(CCCO)CC(=O)O` (stereo not drawn) [Compound A-9] has a Ki of 3.17 nM.
`C/C(=C\c1ccc(C(=O)Oc2ccc(C(=N)N)cc2)o1)C(=O)N(CCO)Cc1ccccc1` [Compound A-10] gave a Ki of 6.73 nM.
`C/C(=C\c1ccc(C(=O)Oc2ccc(C(=N)N)cc2)o1)C(=O)N(CCCO)CCC(=O)O` [Compound A-12, N-{(2E)-3-[5-(4-amidino-2-phenoxycarbonyl)furan-2-yl]-2-methylpropenoyl}-N-(3-hydroxypropyl)-β-alanine trifluoroacetic acid salt] showed a Ki of 3.31 nM.
`C/C(=C\c1ccc(C(=O)Oc2ccc(C(=N)N)cc2)o1)C(=O)N[C@H](C(=O)O)C(C)O` (stereo partly drawn) [Compound A-14] gave a Ki of 3.52 nM.
`CC(Cc1ccc(C(=O)Oc2ccc(C(=N)N)cc2)o1)C(=O)N[C@@H](CCC(=O)O)C(=O)O` (stereo partly drawn) [Compound A-15] gave a Ki of 1.63 nM.
Work on `CC(Cc1ccc(C(=O)Oc2ccc(C(=N)N)cc2)o1)C(=O)N[C@H](C(=O)O)C(C)O` (stereo partly drawn) [Compound A-16] yielded a Ki of 1.88 nM.
With `CC(Cc1ccc(C(=O)Oc2ccc(C(=N)N)cc2)o1)C(=O)N[C@@H](CC(=O)O)C(=O)O` (stereo partly drawn) [Compound A-18] the Ki was 0.61 nM.
With `CC(Cc1ccc(C(=O)Oc2ccc(C(=N)N)cc2)o1)C(=O)N1CCC[C@@H]1C(=O)O` (stereo partly drawn) [Compound A-19] the Ki was 1.91 nM.
Work on `CC(Cc1ccc(C(=O)Oc2ccc(C(=N)N)cc2)o1)C(=O)N1C[C@H](O)C[C@@H]1C(=O)O` (stereo partly drawn) [Compound A-20] yielded a Ki of 2.54 nM.
In the case of `CC(Cc1ccc(C(=O)Oc2ccc(C(=N)N)cc2)o1)C(=O)N1C[C@@H](O)C[C@H]1C(=O)O` (stereo partly drawn) [Compound A-21], the Ki is reported as 4.81 nM.
`C[C@H](Cc1ccc(C(=O)Oc2ccc(C(=N)N)cc2)o1)C(=O)N[C@@H](CC(N)=O)C(=O)O` [Compound A-22] showed a Ki of 0.95 nM.
In the case of `C[C@@H](Cc1ccc(C(=O)Oc2ccc(C(=N)N)cc2)o1)C(=O)N[C@@H](CC(N)=O)C(=O)O` [Compound A-23], the Ki is reported as 2 nM.
With `CC(Cc1ccc(C(=O)Oc2ccc(C(=N)N)cc2)o1)C(=O)N(CC(=O)O)CC(=O)O` (stereo not drawn) [Compound A-26] the Ki was 0.68 nM.
With `CC(Cc1ccc(C(=O)Oc2ccc(C(=N)N)cc2)o1)C(=O)N[C@H](CCC(=O)O)C(=O)O` (stereo partly drawn) [Compound A-27] the Ki was 0.57 nM.
With `CC(Cc1ccc(C(=O)Oc2ccc(C(=N)N)cc2)o1)C(=O)N[C@H](CC(=O)O)C(=O)O` (stereo partly drawn) [Compound A-28] the Ki was 0.42 nM.
Work on `CCC(Cc1ccc(C(=O)Oc2ccc(C(=N)N)cc2)o1)C(=O)O` (stereo not drawn) [Compound A-29, 3-[5-(4-amidinophenoxycarbonyl)furan-2-yl]-2-ethylpropionic acid trifluoroacetic acid salt] yielded a Ki of 0.82 nM.
`CC[C@H](Cc1ccc(C(=O)Oc2ccc(C(=N)N)cc2)o1)C(=O)N[C@H](CCC(=O)O)C(=O)O` [Compound A-30] gave a Ki of 1.03 nM.
For `CCC(Cc1ccc(C(=O)Oc2ccc(C(=N)N)cc2)o1)C(=O)N[C@H](CC(=O)O)C(=O)O` (stereo partly drawn) [Compound A-31], the Ki was 0.5 nM.
For `N=C(N)c1ccc(OC(=O)c2ccc(CC(=O)O)o2)cc1` [Compound A-32, 5-(4-amidinophenoxycarbonyl)furan-2-ylacetic acid trifluoroacetic acid salt], the Ki was 0.62 nM.
With `CC(Cc1ccc(C(=O)Oc2ccc(C(=N)N)cc2F)o1)C(=O)O` (stereo not drawn) [Compound A-33] the Ki was 0.65 nM.
Compound `CCCC(Cc1ccc(C(=O)Oc2ccc(C(=N)N)cc2)o1)C(=O)O` (stereo not drawn) [Compound A-34] has a Ki of 0.98 nM.
With `CC(Cc1ccc(C(=O)Oc2ccc(C(=N)N)cc2F)o1)C(=O)N[C@H](CC(=O)O)C(=O)O` (stereo partly drawn) [Compound A-35, N-{3-[5-(4-amidino-2-fluorophenoxycarbonyl)furan-2-yl]-2-methylpropanoyl}-N-(D)-aspartic acid trifluoroacetic acid salt] the Ki was 0.25 nM.
Work on `CC(Cc1ccc(C(=O)Oc2ccc(C(=N)N)cc2)o1)S(=O)(=O)O` (stereo not drawn) [Compound A-36, 1-[5-(4-amidinophenoxycarbonyl)furan-2-yl]propane-2-sulfonic acid trifluoroacetic acid salt] yielded a Ki of 0.58 nM.
Work on `N=C(N)c1ccc(OC(=O)c2ccc(CCC(=O)O)o2)cc1` [Compound A-37] yielded a Ki of 0.64 nM.
`N=C(N)c1ccc(OC(=O)c2ccc(CCC(=O)N[C@@H](CC(=O)O)C(=O)O)o2)cc1` [Compound A-38] was tested, and the Ki was 0.57 nM.
Work on `N=C(N)c1ccc(OC(=O)c2ccc(CC(=O)N[C@@H](CC(=O)O)C(=O)O)o2)cc1` [Compound A-39, N-[5-(4-amidinophenoxycarbonyl)furan-2-ylacetyl]-(L)-aspartic acid trifluoroacetic acid salt] yielded a Ki of 0.67 nM.
`C[C@H](Cc1ccc(C(=O)Oc2ccc(C(=N)N)cc2)o1)C(=O)O` [Compound A-41, 3-[5-(4-amidinophenoxycarbonyl)furan-2-yl]-2S-methylpropionic acid trifluoroacetic acid salt] showed a Ki of 0.5 nM.
With `C[C@@H](Cc1ccc(C(=O)Oc2ccc(C(=N)N)cc2)o1)C(=O)N[C@@H](CC(=O)O)C(=O)O` [Compound A-43, N-{3-[5-(4-amidinophenoxycarbonyl)-furan-2-yl]-2S-methylpropionyl}-L-aspartic acid trifluoroacetic acid salt] the Ki was 0.4 nM.
Compound `C[C@H](Cc1ccc(C(=O)Oc2ccc(C(=N)N)cc2)o1)C(=O)N[C@@H](CC(=O)O)C(=O)O` [Compound A-44, N-[3-[5-(4-amidinophenoxycarbonyl)-furan-2-yl]-2R-methylpropionyl]-L-aspartic acid trifluoroacetic acid salt] has a Ki of 0.33 nM.
Work on `C[C@@H](Cc1ccc(C(=O)Oc2ccc(C(=N)N)cc2)o1)C(=O)N[C@H](CC(=O)O)C(=O)O` [Compound A-45, N-{3-[5-(4-amidinophenoxycarbonyl)-furan-2-yl]-2S-methylpropionyl}-D-aspartic acid trifluoroacetic acid salt] yielded a Ki of 0.46 nM.
`C[C@H](Cc1ccc(C(=O)Oc2ccc(C(=N)N)cc2)o1)C(=O)N[C@H](CC(=O)O)C(=O)O` [Compound A-46, N-{3-[5-(4-amidinophenoxycarbonyl)-furan-2-yl]-2R-methylpropionyl}-D-aspartic acid trifluoroacetic acid salt] gave a Ki of 0.35 nM.
With `CC(Cc1ccc(C(=O)Oc2ccc(C(=N)N)cc2)o1)C(=O)NCCc1ccccc1` (stereo not drawn) [Compound A-47, 5-{2-methyl-2-[(2-phenylethyl)-carbamoyl]ethyl}furan-2-carboxylic acid 4-amidinophenyl ester trifluoroacetic acid salt] the Ki was 1.9 nM.
With `CC(C)CCNC(=O)C(C)Cc1ccc(C(=O)Oc2ccc(C(=N)N)cc2)o1` (stereo not drawn) [Compound A-48] the Ki was 1.3 nM.
`CC(Cc1ccc(C(=O)Oc2ccc(C(=N)N)cc2)o1)C(=O)NCCN(C)C` (stereo not drawn) [Compound A-49] showed a Ki of 7.6 nM.
`CC(Cc1ccc(C(=O)Oc2ccc(C(=N)N)cc2)o1)C(=O)NCCO` (stereo not drawn) [Compound A-50] showed a Ki of 4.4 nM.
Work on `CC(Cc1ccc(C(=O)Oc2ccc(C(=N)N)cc2)o1)C(=O)N1CCCC1` (stereo not drawn) [Compound A-51] yielded a Ki of 4.9 nM.
`CC(Cc1ccc(C(=O)Oc2ccc(C(=N)N)cc2)o1)C(=O)N1CCCC(C(=O)O)C1` (stereo not drawn) [Compound A-52, N-{3-[5-(4-amidinophenoxycarbonyl)-furan-2-yl]-2-methylpropanoyl}nipecotic acid trifluoroacetic acid salt] was tested, and the Ki was 2.5 nM.
With `C=CCN(CC(=O)O)C(=O)CCc1ccc(C(=O)Oc2ccc(C(=N)N)cc2)o1` [Compound A-55, N-{3-[5-(4-amidinophenoxycarbonyl)-furan-2-yl]-propionyl}-N-allylglycine trifluoroacetic acid salt] the Ki was 1.3 nM.
Work on `CC(Cc1ccc(C(=O)Oc2ccc(C(=N)N)cc2)o1)C(=O)NCP(=O)(O)O` (stereo not drawn) [Compound A-56] yielded a Ki of 1.1 nM.
`CC(Cc1ccc(C(=O)Oc2ccc(C(=N)N)cc2)o1)C(=O)N[C@@H](CS(=O)(=O)O)C(=O)O` (stereo partly drawn) [Compound A-57] showed a Ki of 0.39 nM.
`CC(CCC(=O)O)Cc1ccc(C(=O)Oc2ccc(C(=N)N)cc2)o1` (stereo not drawn) [Compound A-58, 5-[5-(4-amidinophenoxycarbonyl)furan-2-yl]-4-methylpentanoic acid trifluoroacetic acid salt] showed a Ki of 0.7 nM.
Work on `CC(CCC(=O)N[C@@H](CC(=O)O)C(=O)O)Cc1ccc(C(=O)Oc2ccc(C(=N)N)cc2)o1` (stereo partly drawn) [Compound A-59, N-{5-[5-(4-amidinophenoxycarbonyl)furan-2-yl]-4-methylpentanoyl}-L-aspartic acid trifluoroacetic acid salt] yielded a Ki of 0.35 nM.
`N=C(N)c1ccc(OC(=O)c2ccc(CC(CCC(=O)O)C(=O)O)o2)cc1` (stereo not drawn) [Compound A-60, 5-[5-(4-amidinophenoxycarbonyl)furan-2-yl]-4-carboxypentanoic acid trifluoroacetic acid salt] showed a Ki of 0.31 nM.
